Activity data for three compounds are collected here from ChEMBL document CHEMBL4825674, “Phorbol Esters from the Latex of Euphorbia umbellata: Bioguided Isolation of Highly Potent HIV-1 Latency Interrupters in Virus Reservoir Cells” (2021).

For assay [1], the system named is MT4. Nature of the assay: Cytotoxicity against human MT4 cells assessed as cell viability at 1 ug/ml incubated for 24 hrs by CellTiter Blue viability assay. In kind it is functional, cell-based. The note with it: dose 1.0 µg/ml.
Assay [2] in a line: Reduction in CD4 expression in human MT4 cells at 1.94 uM incubated for 24 hrs by flow cytometry analysis. Type of assay: functional. More on the design: scale not given: the % may be the effect or the level left. Background: A flow cytometer gives signals particle by particle.
For assay [3], the system named is Human immunodeficiency virus 1. Nature of the assay: Reactivation of HIV-1 latency infected in GFP-fused J-Lat 10.6 cells assessed as HIV-1 latency reactivation in reservoir cells at 0.097 to 9.7 uM incubated for 24 hrs flow cytometry analysis. Type of assay: functional. The settings on record: dose 0.097-9.7 µM.
Assay [4] can be described thus: Reduction in CD4 expression in human MT4 cells at 1.77 uM incubated for 24 hrs by flow cytometry analysis. Type of assay: functional. Further details: scale not given: the % may be the effect or the level left.
Assay [5] can be described thus: Reduction in CD4 expression in human MT4 cells at 1.82 uM incubated for 24 hrs by flow cytometry analysis. More on the design: scale not given: the % may be the effect or the level left. In kind it is functional.
For assay [6], the system named is Human immunodeficiency virus 1. Nature of the assay: Reactivation of HIV-1 latency infected in GFP-fused J-Lat 10.6 cells assessed as HIV-1 latency reactivation in reservoir cells at 0.088 to 8.85 uM incubated for 24 hrs flow cytometry analysis. Type of assay: functional. The settings on record: dose 0.088-8.85 µM.
Assay [7] concerns Human immunodeficiency virus 1. The assay can be described thus: Reactivation of HIV-1 latency infected in GFP-fused J-Lat 10.6 cells assessed as HIV-1 latency reactivation in reservoir cells at 2.24 uM incubated for 24 hrs flow cytometry analysis. In kind it is functional.

With `C/C=C(/C)C(=O)O[C@@H]1[C@@H](C)[C@]2(O)[C@@H]3C=C(C)C(=O)[C@@]3(O)[C@H](O)C(C)=C[C@H]2[C@H]2C(C)(C)[C@]12OC(=O)C(C)C`, the Activity entry in assay [1] was “Not toxic”; in assay [2], 40%; in assay [3] it was 70%; in assay [4], 40%; in assay [5], 40%.

On to `C/C=C(/C)C(=O)O[C@@H]1[C@@H](C)[C@]2(O)[C@@H]3C=C(C)C(=O)[C@@]3(O)[C@H](O)C(C)=C[C@H]2[C@H]2C(C)(C)[C@]12OC(=O)Cc1ccccc1`, for which the Activity result in assay [1] is “Not toxic”; in assay [6] it was 70%.

`CCCCCC(=O)O[C@H]1C(C)=C[C@]23C(=O)[C@@H](C=C(CO)[C@@H](O)[C@]12O)[C@H]1[C@@H](C[C@H]3C)C1(C)C`: in assay [7], the Activity was 70%.
